# From patent US10508085B2, “Compounds and methods for IDO and TDO modulation, and indications therefor” (Plexxikon Inc., priority 2016, dated 2019)
# What was measured:
# [1] = molecular target: T1, Human Indoleamine 2,3-dioxygenase (IDO) (Homo sapiens, UniProt P14902); test: Human IDO enzymatic assay (kynurenine level); format: biochemical; settings: 6 nM IDO, 10 μM L-Trp; geometric mean; read-out: IDO1 GMean: IC50 (μM) (Biochemical Assay)
# T1 construct: His tag (N); made in house; host or cells: E. coli
# T1 sequence (P14902 whole entry): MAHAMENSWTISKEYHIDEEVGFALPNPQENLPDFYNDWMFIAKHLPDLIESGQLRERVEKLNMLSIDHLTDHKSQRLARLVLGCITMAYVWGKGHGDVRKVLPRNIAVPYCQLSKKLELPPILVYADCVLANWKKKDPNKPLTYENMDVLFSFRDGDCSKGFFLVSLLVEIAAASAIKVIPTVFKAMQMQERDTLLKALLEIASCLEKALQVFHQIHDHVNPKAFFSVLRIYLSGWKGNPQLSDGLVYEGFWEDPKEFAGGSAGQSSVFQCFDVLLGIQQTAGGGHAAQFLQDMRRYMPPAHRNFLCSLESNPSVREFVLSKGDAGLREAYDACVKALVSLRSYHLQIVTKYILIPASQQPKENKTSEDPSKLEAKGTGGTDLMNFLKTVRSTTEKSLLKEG
# How it was run: (§1)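 N-terminally His-tagged enzymes expressed in E. coli were run in 50 mM sodium phosphate pH 6.5 with 10 mM ascorbate, catalase and Tween 20. IDO: 6 nM enzyme, 10 μM L-Trp, 5 μM methylene blue, 20 min RT. TDO: 1 nM enzyme, 350 μM L-Trp, 0.4 μM methylene blue, 70 min RT.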
# [2] = molecular target: T2, Human Tryptophan 2,3-dioxygenase (TDO) (Homo sapiens, UniProt P48775); test: Human TDO enzymatic assay (kynurenine level); format: biochemical; settings: 1 nM TDO, 350 μM L-Trp; geometric mean; read-out: TDO GMean: IC50 (μM) (Biochemical Assay)
# T2 construct: His tag (N); made in house; host or cells: E. coli
# T2 sequence (P48775 whole entry): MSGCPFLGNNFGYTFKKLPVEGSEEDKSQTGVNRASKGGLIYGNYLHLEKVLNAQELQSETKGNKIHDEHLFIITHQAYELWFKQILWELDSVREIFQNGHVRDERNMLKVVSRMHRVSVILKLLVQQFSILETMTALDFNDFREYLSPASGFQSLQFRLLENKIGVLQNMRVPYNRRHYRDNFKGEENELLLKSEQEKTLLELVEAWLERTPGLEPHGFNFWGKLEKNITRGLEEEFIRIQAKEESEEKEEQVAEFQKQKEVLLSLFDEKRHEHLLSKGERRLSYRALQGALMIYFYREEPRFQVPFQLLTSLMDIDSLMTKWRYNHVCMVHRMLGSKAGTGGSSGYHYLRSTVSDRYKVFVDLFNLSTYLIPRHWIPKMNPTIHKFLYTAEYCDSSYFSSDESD
# How it was run: as §1
# [3] = molecular target: T3, human IDO (IDO1-expressing HEK293 cells) (Homo sapiens, UniProt P14902); test: Cell based kynurenine assay, IDO1-expressing HEK293 cell clones; settings: IDO1-expressing HEK293 cells, 24 hours, geometric mean; read-out: HEK293 IDO1 Kynurenine GMean IC50 (μM) (Cellular Assay)
# T3 construct: expressed in transfected cells
# T3 sequence (P14902 whole entry): as the sequence (P14902 whole entry) above
# How it was run: (§2)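 HEK293 stable clones (hIDO1 or hTDO, CMV-driven; G418-selected); 2.5×10^4 cells/well; compound serial dilution, 24 h, 37 °C, 5% CO2; supernatant kynurenine; IC50 by nonlinear fit.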
# [4] = molecular target: T4, human TDO (TDO-expressing HEK293 cells) (Homo sapiens, UniProt P48775); test: Cell based kynurenine assay, TDO-expressing HEK293 cell clones; settings: TDO-expressing HEK293 cells, 24 hours, geometric mean; read-out: HEK293 TDO Kynurenine GMean IC50 (μM) (Cellular Assay)
# T4 construct: expressed in transfected cells
# T4 sequence (P48775 whole entry): as the sequence (P48775 whole entry) above
# How it was run: as §2
IC50 [1] [µM],IC50 [2] [µM],IC50 [3] [µM],IC50 [4] [µM],SMILES
0.0001 to 10,0.0001 to 10,0.0001 to 10,0.0001 to 10,"CC(C)(C1CCN(C(=O)C2CCC2)CC1)C(O)c1cc(Cl)cc2cn[nH]c12 (centres unmarked) [Compound P-0412, (4-(1-(5-chloro-1H-indazol-7-yl)-1-hydroxy-2-methylpropan-2-yl)piperidin-1-yl)(cyclobutyl) methanone]"
0.0001 to 10,0.0001 to 10,0.0001 to 10,0.0001 to 10,"CC(C)C(=O)N1CCC(C(C)(C)C(O)c2cc(Cl)cc3cn[nH]c23)CC1 (centres unmarked) [Compound P-0413, 1-(4-(1-(5-chloro-1H-indazol-7-yl)-1-hydroxy-2-methylpropan-2-yl)piperidin-1-yl)-2-methylpropan-1-one]"
0.0001 to 10,0.0001 to 10,0.0001 to 10,0.0001 to 10,"CC(C)(C1CCN(C(=O)C2CC2)CC1)C(O)c1c(F)c(Cl)cc2cn[nH]c12 (centres unmarked) [Compound P-0416, (4-(1-(5-chloro-6-fluoro-1H-indazol-7-yl)-1-hydroxy-2-methylpropan-2-yl)piperidin-1-yl)(cyclopropyl) methanone]"
0.0001 to 10,0.0001 to 10,0.0001 to 10,0.0001 to 10,"CC(C)(C1CCN(C(=O)c2ccccc2)CC1)C(O)c1c(F)c(Cl)cc2cn[nH]c12 (centres unmarked) [Compound P-0417, (4-(1-(5-chloro-6-fluoro-1H-indazol-7-yl)-1-hydroxy-2-methylpropan-2-yl)piperidin-1-yl)(phenyl) methanone]"
0.0001 to 10,0.0001 to 10,0.0001 to 10,0.0001 to 10,"COCCNC(=O)N1CCC(C(C)(C)C(O)c2c(F)c(Cl)cc3cn[nH]c23)CC1 (centres unmarked) [Compound P-0419, 4-(1-(5-chloro-6-fluoro-1H-indazol-7-yl)-1-hydroxy-2-methylpropan-2-yl)-N-(2-methoxyethyl) piperidine-1-carboxamide]"
0.0001 to 10,0.0001 to 10,0.0001 to 10,0.0001 to 10,"CC(=O)N1CCC(C(C)(C)[C@@H](O)c2cc(Cl)cc3cn[nH]c23)CC1 [Compound P-0422, (R)-1-(4-(1-(5-chloro-1H-indazol-7-yl)-1-hydroxy-2-methylpropan-2-yl)piperidin-1-yl)ethan-1-one]"
0.0001 to 10,0.0001 to 10,> 10,0.0001 to 10,"CC(C)(C1CCN(C(N)=O)CC1)[C@@H](O)c1cc(Cl)cc2cn[nH]c12 [Compound P-0426, (R)-4-(1-(5-chloro-1H-indazol-7-yl)-1-hydroxy-2-methylpropan-2-yl)piperidine-1-carboxamide]"
0.0001 to 10,0.0001 to 10,0.0001 to 10,0.0001 to 10,"CNC(=O)N1CCC(C(C)(C)[C@@H](O)c2cc(Cl)cc3cn[nH]c23)CC1 [Compound P-0427, (R)-4-(1-(5-chloro-1H-indazol-7-yl)-1-hydroxy-2-methylpropan-2-yl)-N-methylpiperidine-1-carboxamide]"

# Further lines, the compound ahead of its results:
SMILES,IC50 [1] [µM],IC50 [2] [µM],IC50 [3] [µM],IC50 [4] [µM]
"O=C(C1CCC1)N1CCC(C(F)(F)C(O)c2c(F)c(Cl)cc3cn[nH]c23)CC1 (centres unmarked) [Compound P-0409, (4-(2-(5-chloro-6-fluoro-1H-indazol-7-yl)-1,1-difluoro-2-hydroxyethyl)piperidin-1-yl)(cyclobutyl) methanone]",0.0001 to 10,0.0001 to 10,0.0001 to 10,0.0001 to 10
"CC(C)(C1CCN(C(=O)CC2CC2)CC1)C(O)c1cc(Cl)cc2cn[nH]c12 (centres unmarked) [Compound P-0410, 1-(4-(1-(5-chloro-1H-indazol-7-yl)-1-hydroxy-2-methylpropan-2-yl)piperidin-1-yl)-2-cyclopropylethan-1-one]",0.0001 to 10,0.0001 to 10,0.0001 to 10,0.0001 to 10
"CC(C)CC(=O)N1CCC(C(C)(C)C(O)c2cc(Cl)cc3cn[nH]c23)CC1 (centres unmarked) [Compound P-0411, 1-(4-(1-(5-chloro-1H-indazol-7-yl)-1-hydroxy-2-methylpropan-2-yl)piperidin-1-yl)-3-methylbutan-1-one]",0.0001 to 10,0.0001 to 10,0.0001 to 10,0.0001 to 10
"COCC(=O)N1CCC(C(C)(C)C(O)c2cc(Cl)cc3cn[nH]c23)CC1 (centres unmarked) [Compound P-0414, 1-(4-(1-(5-chloro-1H-indazol-7-yl)-1-hydroxy-2-methylpropan-2-yl)piperidin-1-yl)-2-methoxyethan-1-one]",0.0001 to 10,0.0001 to 10,0.0001 to 10,0.0001 to 10
"CS(=O)(=O)NC12CCC(C(O)c3cc(Cl)cc4cn[nH]c34)(CC1)CC2 (centres unmarked) [Compound P-0415, N-(4-((5-chloro-1H-indazol-7-yl)(hydroxy)methyl)bicyclo[2.2.2]octan-1-yl) methanesulfonamide]",0.0001 to 10,0.0001 to 10,0.0001 to 10,> 10
"CC(C)(C1CCN(C(=O)c2cccnc2)CC1)C(O)c1c(F)c(Cl)cc2cn[nH]c12 (centres unmarked) [Compound P-0418, (4-(1-(5-chloro-6-fluoro-1H-indazol-7-yl)-1-hydroxy-2-methylpropan-2-yl)piperidin-1-yl)(pyridin-3-yl)methanone]",0.0001 to 10,0.0001 to 10,0.0001 to 10,0.0001 to 10
"COCCCNC(=O)N1CCC(C(C)(C)C(O)c2c(F)c(Cl)cc3cn[nH]c23)CC1 (centres unmarked) [Compound P-0420, 4-(1-(5-chloro-6-fluoro-1H-indazol-7-yl)-1-hydroxy-2-methylpropan-2-yl)-N-(3-methoxypropyl) piperidine-1-carboxamide]",0.0001 to 10,0.0001 to 10,0.0001 to 10,0.0001 to 10
"CCC(=O)N1CCC(C(C)(C)C(O)c2c(F)c(Cl)cc3cn[nH]c23)CC1 (centres unmarked) [Compound P-0421, 1-(4-(1-(5-chloro-6-fluoro-1H-indazol-7-yl)-1-hydroxy-2-methylpropan-2-yl)piperidin-1-yl)propan-1-one]",0.0001 to 10,0.0001 to 10,0.0001 to 10,0.0001 to 10
"CCC(=O)N1CCC(C(C)(C)[C@@H](O)c2cc(Cl)cc3cn[nH]c23)CC1 [Compound P-0423, (R)-1-(4-(1-(5-chloro-1H-indazol-7-yl)-1-hydroxy-2-methylpropan-2-yl)piperidin-1-yl)propan-1-one]",0.0001 to 10,0.0001 to 10,0.0001 to 10,0.0001 to 10
"CC(C)(C1CCN(C(=O)C2CC2)CC1)[C@@H](O)c1cc(Cl)cc2cn[nH]c12 [Compound P-0424, (R)-(4-(1-(5-chloro-1H-indazol-7-yl)-1-hydroxy-2-methylpropan-2-yl)piperidin-1-yl)(cyclopropyl) methanone]",0.0001 to 10,0.0001 to 10,> 10,0.0001 to 10
"COCCNC(=O)N1CCC(C(C)(C)[C@@H](O)c2cc(Cl)cc3cn[nH]c23)CC1 [Compound P-0425, (R)-4-(1-(5-chloro-1H-indazol-7-yl)-1-hydroxy-2-methylpropan-2-yl)-N-(2-methoxyethyl) piperidine-1-carboxamide]",0.0001 to 10,0.0001 to 10,0.0001 to 10,0.0001 to 10
"CCNC(=O)N1CCC(C(C)(C)[C@@H](O)c2cc(Cl)cc3cn[nH]c23)CC1 [Compound P-0428, (R)-4-(1-(5-chloro-1H-indazol-7-yl)-1-hydroxy-2-methylpropan-2-yl)-N-ethylpiperidine-1-carboxamide]",0.0001 to 10,0.0001 to 10,> 10,0.0001 to 10
